The text below walks through data of US8987474B2 (University of South Florida, priority 2006, dated 2015).

Where “and” joins values, the source holds several entries; their conditions need not be identical. Identical values can stand only once.

In this assay the target is Shp2 (Homo sapiens (Human), UniProt Q06124). Briefly: PTP activity assay (DiFMUP substrate) with GST-Shp2. The format is biochemical. As to conditions: for IC50: Table II, Shp2. The text has this:
All constructs were verified by DNA sequencing.
Recombinant DEP1 was from Abcam.

Chain of Shp2 (Q06124 205-593): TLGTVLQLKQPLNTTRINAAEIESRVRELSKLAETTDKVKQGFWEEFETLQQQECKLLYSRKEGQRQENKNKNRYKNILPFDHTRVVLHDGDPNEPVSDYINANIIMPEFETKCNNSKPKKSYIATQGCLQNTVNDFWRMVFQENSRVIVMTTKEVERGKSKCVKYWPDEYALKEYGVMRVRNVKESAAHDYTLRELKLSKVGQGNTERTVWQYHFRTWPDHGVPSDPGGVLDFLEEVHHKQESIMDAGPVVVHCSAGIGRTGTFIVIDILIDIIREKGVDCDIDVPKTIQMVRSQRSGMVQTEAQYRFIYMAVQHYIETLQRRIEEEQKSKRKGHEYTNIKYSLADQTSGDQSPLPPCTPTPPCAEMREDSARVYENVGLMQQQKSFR

Take `O=C1Nc2ccc(S(=O)(=O)NCC3CCCO3)cc2/C1=N/Nc1ccccc1[N+](=O)[O-]` (stereo not shown) [RPM172, 3-[(2-Nitrophenyl)hydrazono]-2-oxo-2,3-dihydro-1H-indole-5-sulfonic acid (tetrahydrofuran-2-ylmethyl)amide]: the “% PTP activity” value (concentration not given) is on record as 35 ± 5% (12).

Regarding `CCC(C)NS(=O)(=O)c1ccc2c(c1)/C(=N/Nc1ccccc1[N+](=O)[O-])C(=O)N2` (stereo not shown) [RPM173, 3-[(2-Nitrophenyl)hydrazono]-2-oxo-2,3-dihydro-1H-indole-5-sulfonic acid sec-butylamide], the “% PTP activity” value (concentration not given) is 33 ± 7% (12).

Turning to `CCN1C(=O)/C(=N\Nc2ccccc2[N+](=O)[O-])c2cc(S(=O)(=O)N(C)C)ccc21` [RPM176, 1-Ethyl-3-[(2-nitro-phenyl)-hydrazono]-2-oxo-2,3-dihydro-1H-indole-5-sulfonic acid dimethylamide], the “% PTP activity” value (concentration not given) is 50% ± 5% (6).

With `O=C1Nc2ccc(S(=O)(=O)N3CCOCC3)cc2/C1=N/Nc1ccccc1[N+](=O)[O-]` [RPM177], for the setting “concentration not given”, the “% PTP activity” value was 36 ± 8% (6).

On to `O=C(O)c1ccc2cc(C(=O)Nc3ccccc3)ccc2c1` [RPM183], for which, where the note is “concentration not given”, the “% PTP activity” value is on record as 79 ± 16 (7) %.

As to `COC(=O)c1ccc2cc(C(=O)Nc3ccc(C(=O)O)cc3)ccc2c1` [RPM185], the “% PTP activity” value (at 20 μM) was 71 ± 3% (3) at 20 uM.

With `COC(=O)c1ccc2cc(C(=O)Nc3ccc(S(N)(=O)=O)cc3)ccc2c1` [RPM187], where the note is “at 20 μM”, the “% PTP activity” value is 66 ± 4% (3) at 20 uM.

Turning to `NS(=O)(=O)c1ccc2c(c1)/C(=N/Nc1ccccc1C(=O)O)C(=O)N2` [RPM188, 2-[N′-(2-Oxo-5-sulfamoyl-1,2-dihydro-indol-3-ylidene)hydrazino]benzoic acid], the “% PTP activity” value (at 20 μM) was 65 ± 3% (3) at 20 μM.

Broadly, the IC50 is the concentration that gives 50% inhibition. In turn, `O=C1Nc2ccc(S(=O)(=O)NCc3ccc(Cl)cc3)cc2/C1=N/Nc1ccccc1C(=O)O` [RPM191, 2-[N′-[5-(4-Chloro-benzylsulfamoyl)-2-oxo-1,2-dihydro-indol-3-ylidene]hydrazino}benzoic acid] gave an IC50 of 33 to 100 µM. For the same molecule, the “% PTP activity” value (at 20 μM) is 65.07% and 53.99%.

Take `O=C(O)c1ccc(NC(=O)c2ccc3cc(C(=O)O)ccc3c2)cc1` [RPM194]: where the note is “at 20 μM”, the “% PTP activity” value was 69 ± 7.5% (3) at 20 uM.

Regarding `NS(=O)(=O)c1ccc(NC(=O)c2ccc3cc(C(=O)O)ccc3c2)cc1` [RPM195], for the setting “at 20 μM”, the “% PTP activity” value is listed as 54 ± 6% (3) at 20 uM.

With `COC(=O)c1ccc2cc(C(=O)Nc3c(O)cccc3C(=O)O)ccc2c1` [RPM202], the IC50 is 33 to 100 µM. The “% PTP activity” value (at 20 μM) is 58 ± 7% (3) at 20 uM.

In the case of `O=C(O)c1ccc2cc(C(=O)Nc3c(O)cccc3C(=O)O)ccc2c1` [RPM204], the IC50 lay in the range of 33 to 100 µM. The “% PTP activity” value (at 20 μM) is listed as 68 ± 5% (3) at 20 uM.

For `O=C1Nc2ccc(S(=O)(=O)O)cc2/C1=N/Nc1ccccc1C(=O)O` [RPM211, 2-[N′-(2-Oxo-5-sulfo-1,2-dihydro-indol-3-ylidene)hydrazino]benzoic acid], the IC50 lay in the range of 33 to 100 µM. The “% PTP activity” value (at 20 μM) turned out to be 67 ± 8% at 20 μM.

`O=C1Nc2ccc(S(=O)(=O)O)cc2/C1=N/Nc1ccccc1` [RPM215, 2-Oxo-3-(phenylhydrazono)-2,3-dihydro-1H-indole-5-sulfonic acid]: under “at 20 μM”, the “% PTP activity” value is given as 51 ± 3% (3) at 20 μM.

On to `Cc1ccccc1N/N=C1\C(=O)Nc2ccc(S(=O)(=O)O)cc21` [RPM216, 2-Oxo-3-[(2-methylphenylhydrazono)]-2,3-dihydro-1H-indole-5-sulfonic acid], for which the “% PTP activity” value (at 20 μM) is listed as 50 ± 14% (3) at 20 μM.

Molecule `O=C1Nc2ccc(S(=O)(=O)O)cc2/C1=N/Nc1c(Cl)cccc1Cl` [RPM218, 2-Oxo-3-[(2,6-dichlorophenylhydrazono)]-2,3-dihydro-1H-indole-5-sulfonic acid] came in with an IC50 of 33 to 100 µM. Further, for the setting “at 20 μM”, the “% PTP activity” value is reported as 53 ± 0.1% (2) at 20 μM.

With `CCc1ccccc1N/N=C1\C(=O)Nc2ccc(S(=O)(=O)O)cc21` [RPM219, 2-Oxo-3-[(2-ethylphenylhydrazono)]-2,3-dihydro-1H-indole-5-sulfonic acid], the concentration for half-maximal inhibition (IC50) was in the range of 33 to 100 µM. In addition, for the setting “at 20 μM”, the “% PTP activity” value was 89 ± 2% (3) at 20 μM.

As to `O=C1Nc2ccc(S(=O)(=O)O)cc2/C1=N/Nc1ccccc1F` [RPM220, 2-Oxo-3-[(2-fluorophenylhydrazono)]-2,3-dihydro-1H-indole-5-sulfonic acid], the “% PTP activity” value (at 20 μM) is given as 73 ± 10% (3) at 20 μM.

The molecule `O=C1Nc2ccc(S(=O)(=O)O)cc2/C1=N/Nc1ccccc1C(F)(F)F` [RPM221, 2-Oxo-3-[(2-trifluoromethylphenylhydrazono)]-2,3-dihydro-1H-indole-5-sulfonic acid] returned an IC50 of 33 to 100 µM. For the same molecule, the “% PTP activity” value (at 20 μM) is 63 ± 4% (3) at 20 μM.

Take `O=C1Nc2ccc(S(=O)(=O)O)cc2/C1=N/Nc1c(F)c(F)c(F)c(F)c1F` [RPM222, 2-Oxo-3-(pentafluorophenylhydrazono)-2,3-dihydro-1H-indole-5-sulfonic acid]: the half-inhibitory concentration (IC50) is 33 to 100 µM. Moreover, the “% PTP activity” value (at 20 μM) is 58 ± 6% (3) at 20 μM.

Take `O=C1Nc2ccc(S(=O)(=O)O)cc2/C1=N/Nc1cccc2ccccc12` [RPM223, 3-(Naphthalen-1-ylhydrazono)-2-oxo-2,3-dihydro-1H-indole-5-sulfonic acid]: the half-maximal inhibitory concentration (IC50) was in the range of 33 to 100 µM. Further, the “% PTP activity” value (at 20 μM) is given as 76 + 12% at 20 μM.

`O=C1Nc2ccc(S(=O)(=O)O)cc2/C1=N/Nc1ccc(Cl)cc1Cl` [RPM224, 2-Oxo-3-[(2,4-dichlorophenylhydrazono)]-2,3-dihydro-1H-indole-5-sulfonic acid] showed a half-maximal inhibitory concentration (IC50) of 33 to 100 µM. Further, where the note is “at 20 μM”, the “% PTP activity” value is on record as 81 ± 10% (3) at 20 μM.

Turning to `O=C1Nc2ccc(S(=O)(=O)O)cc2/C1=N/Nc1cc(Cl)ccc1Cl` [RPM225, 2-Oxo-3-[(2,5-dichlorophenylhydrazono)]-2,3-dihydro-1H-indole-5-sulfonic acid], the IC50 lay in the range of 33 to 100 µM. Where the note is “at 20 μM”, the “% PTP activity” value was found to be 73 ± 22% at 20 μM.

`O=C1Nc2ccc(C(=O)O)cc2/C1=N/Nc1ccccc1Cl` [RPM270] came in with a half-maximal inhibitory concentration (IC50) of 33 to 100 µM. For the same molecule, the “% PTP activity” value (at 20 μM) is 45 ± 18% (2) At 20 μM.

For the molecule `O=C1Nc2ccc(C(=O)O)cc2/C1=N/Nc1ccccc1` [RPM272, 3-(Phenylhydrazono)-2-oxo-2,3-dihydro-1H-indole-5-carboxylic acid], the “% PTP activity” value (at 20 μM) stood at 43 ± 4% at 20 μM.

On to `CC(C)NS(=O)(=O)c1ccc2c(c1)/C(=N/Nc1ccccc1)C(=O)N2` [RPM275, 3-(Phenylhydrazono)-2-oxo-2,3-dihydro-1H-indole-5-sulfonic acid isopropylamide], for which the “% PTP activity” value (at 20 μM) is on record as 58.53% (1) at 20 μM.

As to `CC(C)NS(=O)(=O)c1ccc2c(c1)/C(=N/Nc1ccccc1C(N)=O)C(=O)N2` [RPM283, 2-[N′-(5-Isopropylsulfamoyl-2-oxo-1,2-dihydro-indol-3-ylidene)hydrazino]benzamide], where the note is “at 20 μM”, the “% PTP activity” value is 52 ± 7% (2) At 20 μM.

Regarding `CC(C)NS(=O)(=O)c1ccc2c(c1)/C(=N/Nc1ccccc1C(=O)NCCN(C)C)C(=O)N2` [RPM284, N-(2-Dimethylaminoethyl)-2-[N′-(5-isopropylsulfamoyl-2-oxo-1,2-dihydro-indol-3-ylidene)hydrazino]benzamide], the “% PTP activity” value (at 20 μM) is reported as 47 ± 6% (2) At 20 μM.

Regarding `COCCNC(=O)c1ccccc1N/N=C1\C(=O)Nc2ccc(S(=O)(=O)NC(C)C)cc21` [RPM285, 2-[N′-(5-Isopropylsulfamoyl-2-oxo-1,2-dihydro-indol-3-ylidene)-hydrazino]-N-(2-methoxyethyl)benzamide], where the note is “at 20 μM”, the “% PTP activity” value is recorded as 51 ± 7% (2) At 20 μM.

Take `CC(C)NS(=O)(=O)c1ccc2c(c1)/C(=N/Nc1ccccc1C(=O)NCc1ccccc1)C(=O)N2` [RPM287, N-Benzyl-2-[N′-(5-isopropylsulfamoyl-2-oxo-1,2-dihydro-indol-3-ylidene)hydrazino]benzamide]: the “% PTP activity” value (at 20 μM) is 48 ± 10% (2) At 20 μM.

Turning to `CCOC(=O)c1ccc(N/C=C2\C(=O)Nc3ccc(S(=O)(=O)NC(C)C)cc32)cc1` [RPM288, 4-[(5-Isopropylsulfamoyl-2-oxo-1,2-dihydro-indol-3-ylidenemethyl)amino]benzoic acid ethyl ester], the “% PTP activity” value (at 20 μM) is 30 ± 2% (2) at 20 μM.

The molecule `CC(C)NS(=O)(=O)c1ccc2c(c1)/C(=N/Nc1ccccc1C(=O)NCc1cccnc1)C(=O)N2` [RPM290, 2-[N′-(5-Isopropylsulfamoyl-2-oxo-1,2-dihydro-indol-3-ylidene)hydrazino]-N-pyridin-3-ylmethylbenzamide] showed a half-maximal inhibitory concentration (IC50) of 33 to 100 µM. Under “at 20 μM”, the “% PTP activity” value is 46 ± 2% (2) At 20 μM.

In turn, `CC(C)NS(=O)(=O)c1ccc2c(c1)/C(=N/Nc1ccccc1C(=O)NCc1ccco1)C(=O)N2` [RPM292, N-Furan-2-ylmethyl-2-[N′-(5-isopropylsulfamoyl-2-oxo-1,2-dihydro-indol-3-ylidene)hydrazino]benzamide] registered an IC50 of 33 to 100 µM. Moreover, where the note is “at 20 μM”, the “% PTP activity” value is 47 ± 7% (20 At 20 μM.

For `CC(C)NS(=O)(=O)c1ccc2c(c1)/C(=N/Nc1ccccc1C(=O)NCCN1CCOCC1)C(=O)N2` [RPM293, 2-[N′-(5-Isopropylsulfamoyl-2-oxo-1,2-dihydro-indol-3-ylidene)hydrazino]-N-(2-morpholin-4-yl-ethyl)benzamide], for the setting “at 20 μM”, the “% PTP activity” value was 49 ± 6% (2) At 20 μM.

`CC(C)NS(=O)(=O)c1ccc2c(c1)/C(=N/Nc1ccccc1C(=O)N(C)C)C(=O)N2` [RPM294, 2-[N′-(5-Isopropylsulfamoyl-2-oxo-1,2-dihydro-indol-3-ylidene)hydrazino]-N,N-dimethylbenzamide]: the “% PTP activity” value (at 20 μM) was 48 ± 0% (2) At 20 μM.

Regarding `CNC(=O)c1ccccc1N/N=C1\C(=O)Nc2ccc(S(=O)(=O)NC(C)C)cc21` [RPM295, 2-[N′-(5-Isopropylsulfamoyl-2-oxo-1,2-dihydro-indol-3-ylidene)hydrazino]-N-methylbenzamide], the “% PTP activity” value (at 20 μM) is listed as 43 ± 2% (2) At 20 μM.

Take `CCNC(=O)c1ccccc1N/N=C1\C(=O)Nc2ccc(S(=O)(=O)NC(C)C)cc21` [RPM296, N-Ethyl-2-[N′-(5-isopropylsulfamoyl-2-oxo-1,2-dihydro-indol-3-ylidene)hydrazino]benzamide]: under “at 20 μM”, the “% PTP activity” value is listed as 48 ± 2% (2) At 20 μM.
